From ChEMBL document CHEMBL4354790, “Tailored therapeutics based on 1,2,3-1H-triazoles: a mini review” (Medchemcomm, 2019)
pEC50, pIC50, pKi: −log10 of the molar value. Blank lines part the entries; values can stand above or below the compound they belong to. Where a SMILES comes first, the peptide text is derived from it.

Columns and labels:
[1] = target: Signal transducer and activator of transcription 3 (Homo sapiens, UniProt P40763); assay: Inhibition of STAT3 (unknown origin)
Protease [2] = target: Protease (Human immunodeficiency virus 1, UniProt Q9YQ12); assay: Inhibition of HIV-1 protease
Protease [3] = target: Protease (Human immunodeficiency virus 1, UniProt Q9YQ12, G48V); assay: Inhibition of HIV-1 protease G48V mutant
Protease [4] = target: Protease (Human immunodeficiency virus 1, UniProt Q9YQ12, V82F); assay: Inhibition of HIV-1 protease V82F mutant
Protease [5] = target: Protease (Human immunodeficiency virus 1, UniProt Q9YQ12, V82A); assay: Inhibition of HIV-1 protease V82A mutant
Carbonic anhydrase = assay: Inhibition of carbonic anhydrase (unknown origin); format: protein assay, Homo sapiens
[6] = target: Telomerase reverse transcriptase (Homo sapiens, UniProt O14746); assay: Inhibition of telomerase activity in human A2780 cells incubated for 10 mins by SYBR Green 1 staining based TRAP assay; format: cell-based
Tyrosinase = target: T1, Tyrosinase (Agaricus bisporus, UniProt O42713); assay: Inhibition of mushroom tyrosinase using L-DOPA as substrate
T1 sequence (O42713 whole entry): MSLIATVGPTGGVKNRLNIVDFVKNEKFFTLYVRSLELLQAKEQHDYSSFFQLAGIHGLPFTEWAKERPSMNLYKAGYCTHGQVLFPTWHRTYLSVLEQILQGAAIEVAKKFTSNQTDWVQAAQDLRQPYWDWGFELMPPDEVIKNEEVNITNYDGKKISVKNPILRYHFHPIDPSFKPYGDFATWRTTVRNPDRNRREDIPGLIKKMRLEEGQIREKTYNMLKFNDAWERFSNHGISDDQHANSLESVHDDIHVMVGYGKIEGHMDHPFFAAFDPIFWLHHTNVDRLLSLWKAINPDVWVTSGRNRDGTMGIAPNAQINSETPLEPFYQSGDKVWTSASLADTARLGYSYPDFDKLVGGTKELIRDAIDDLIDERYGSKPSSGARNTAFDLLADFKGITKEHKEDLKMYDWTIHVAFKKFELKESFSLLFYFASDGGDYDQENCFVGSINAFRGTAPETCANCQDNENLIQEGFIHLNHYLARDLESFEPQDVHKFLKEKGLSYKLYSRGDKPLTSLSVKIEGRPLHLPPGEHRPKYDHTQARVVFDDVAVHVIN

D-amino-acid oxidase = D-amino-acid oxidase (Homo sapiens, UniProt P14920); assay: Inhibition of human DAO
Sequence of D-amino-acid oxidase (P14920 whole entry): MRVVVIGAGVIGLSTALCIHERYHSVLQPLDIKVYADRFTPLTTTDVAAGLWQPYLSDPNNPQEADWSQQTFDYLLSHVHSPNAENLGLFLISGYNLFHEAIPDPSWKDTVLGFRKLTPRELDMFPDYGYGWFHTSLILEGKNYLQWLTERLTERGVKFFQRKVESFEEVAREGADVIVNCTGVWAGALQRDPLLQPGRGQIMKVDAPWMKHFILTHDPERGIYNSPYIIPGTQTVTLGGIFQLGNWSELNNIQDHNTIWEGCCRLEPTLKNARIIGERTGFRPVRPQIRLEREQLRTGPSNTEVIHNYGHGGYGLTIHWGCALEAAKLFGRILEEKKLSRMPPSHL

Sequence of Telomerase reverse transcriptase (O14746 whole entry): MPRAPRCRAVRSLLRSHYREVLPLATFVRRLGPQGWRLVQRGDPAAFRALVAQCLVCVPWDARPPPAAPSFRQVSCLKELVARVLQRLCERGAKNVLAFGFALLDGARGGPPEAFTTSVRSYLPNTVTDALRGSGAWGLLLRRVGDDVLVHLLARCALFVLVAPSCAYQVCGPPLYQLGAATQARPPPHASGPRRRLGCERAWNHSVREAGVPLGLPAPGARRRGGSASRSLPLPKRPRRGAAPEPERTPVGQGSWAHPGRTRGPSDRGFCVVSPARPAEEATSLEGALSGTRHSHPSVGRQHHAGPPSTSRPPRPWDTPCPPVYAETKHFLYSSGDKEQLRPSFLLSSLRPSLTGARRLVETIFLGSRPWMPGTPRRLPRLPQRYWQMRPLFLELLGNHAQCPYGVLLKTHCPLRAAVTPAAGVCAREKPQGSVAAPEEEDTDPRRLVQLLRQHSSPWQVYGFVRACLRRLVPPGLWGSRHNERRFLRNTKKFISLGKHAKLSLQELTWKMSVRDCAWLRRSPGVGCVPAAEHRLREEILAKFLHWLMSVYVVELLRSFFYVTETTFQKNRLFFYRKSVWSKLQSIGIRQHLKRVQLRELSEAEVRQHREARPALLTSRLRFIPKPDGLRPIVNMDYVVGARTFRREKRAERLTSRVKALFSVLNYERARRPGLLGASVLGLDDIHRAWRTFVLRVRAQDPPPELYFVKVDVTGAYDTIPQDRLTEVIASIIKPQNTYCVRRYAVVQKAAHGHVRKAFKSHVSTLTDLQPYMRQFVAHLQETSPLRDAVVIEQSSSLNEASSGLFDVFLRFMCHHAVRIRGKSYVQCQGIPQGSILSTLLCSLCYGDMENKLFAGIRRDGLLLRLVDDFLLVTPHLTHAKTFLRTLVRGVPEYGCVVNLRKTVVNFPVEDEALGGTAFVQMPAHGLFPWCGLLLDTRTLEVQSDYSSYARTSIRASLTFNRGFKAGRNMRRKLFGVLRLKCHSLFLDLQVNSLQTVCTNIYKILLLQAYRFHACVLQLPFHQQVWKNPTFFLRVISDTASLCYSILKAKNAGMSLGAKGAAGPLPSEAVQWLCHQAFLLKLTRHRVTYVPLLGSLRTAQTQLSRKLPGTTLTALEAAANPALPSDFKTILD
Sequence of Signal transducer and activator of transcription 3 (P40763 whole entry): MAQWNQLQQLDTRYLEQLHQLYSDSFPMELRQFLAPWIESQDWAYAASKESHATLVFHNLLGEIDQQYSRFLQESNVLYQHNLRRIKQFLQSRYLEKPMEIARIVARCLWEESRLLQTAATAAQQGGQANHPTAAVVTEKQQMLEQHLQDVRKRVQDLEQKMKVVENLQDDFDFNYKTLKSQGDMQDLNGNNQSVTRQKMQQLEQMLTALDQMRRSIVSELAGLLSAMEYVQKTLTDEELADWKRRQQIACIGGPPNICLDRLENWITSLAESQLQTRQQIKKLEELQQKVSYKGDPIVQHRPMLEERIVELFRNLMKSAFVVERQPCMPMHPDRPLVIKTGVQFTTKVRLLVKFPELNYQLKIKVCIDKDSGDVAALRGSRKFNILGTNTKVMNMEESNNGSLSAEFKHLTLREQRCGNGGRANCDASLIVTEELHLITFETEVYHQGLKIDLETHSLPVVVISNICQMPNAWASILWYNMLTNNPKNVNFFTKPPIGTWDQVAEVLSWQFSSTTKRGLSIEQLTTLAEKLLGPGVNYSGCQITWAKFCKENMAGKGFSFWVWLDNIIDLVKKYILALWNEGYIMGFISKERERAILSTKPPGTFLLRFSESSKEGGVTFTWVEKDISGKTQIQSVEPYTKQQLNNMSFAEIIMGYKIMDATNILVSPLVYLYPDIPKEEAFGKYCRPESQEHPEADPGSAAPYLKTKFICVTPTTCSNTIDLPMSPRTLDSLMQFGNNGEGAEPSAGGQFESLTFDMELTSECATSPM
Sequence of Protease (Human immunodeficiency virus 1, UniProt Q9YQ12, V82A) (Q9YQ12 entry or part of it V82A): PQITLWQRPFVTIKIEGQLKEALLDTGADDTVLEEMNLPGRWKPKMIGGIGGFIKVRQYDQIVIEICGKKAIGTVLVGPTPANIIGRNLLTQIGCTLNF
Sequence of Protease (Human immunodeficiency virus 1, UniProt Q9YQ12, V82F) (Q9YQ12 entry or part of it V82F): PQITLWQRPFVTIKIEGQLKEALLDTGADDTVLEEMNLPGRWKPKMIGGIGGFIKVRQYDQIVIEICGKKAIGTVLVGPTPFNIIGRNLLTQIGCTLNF
Sequence of Protease (Human immunodeficiency virus 1, UniProt Q9YQ12, G48V) (Q9YQ12 entry or part of it G48V): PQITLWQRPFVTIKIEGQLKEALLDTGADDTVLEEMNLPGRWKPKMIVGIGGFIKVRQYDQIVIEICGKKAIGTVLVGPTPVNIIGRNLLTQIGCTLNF
Sequence of Protease (Human immunodeficiency virus 1, UniProt Q9YQ12) (Q9YQ12 whole entry): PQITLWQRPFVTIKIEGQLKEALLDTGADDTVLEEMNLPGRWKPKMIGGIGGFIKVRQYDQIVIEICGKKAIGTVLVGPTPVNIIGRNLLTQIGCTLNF

- pKi [1]: 4.66
SMILES: COC(=O)[C@H](CCCCN)NC(=O)[C@@H](NC(=O)[C@@H](CCCCN)NC(=O)[C@@H](NC(=O)[C@@H](Cc1ccc(OP(=O)(O)O)cc1)NC(C)=O)C(C)C)[C@@H](C)O

SMILES: COc1ccc(S(=O)(=O)N(CC(C)C)C[C@H](O)[C@@H](Cc2ccccc2)n2cc(COC(=O)N[C@H]3c4ccccc4C[C@H]3O)nn2)cc1
- pKi (Protease [2]): 8.77
- pKi (Protease [3]): 8.77
- pKi (Protease [4]): 8.77
- pKi (Protease [5]): 8.77

- Ki (Carbonic anhydrase): 0.0002 µM
SMILES: CC(C)[C@H](C(=O)NCc1ccccc1)n1cc(-c2ccc(S(N)(=O)=O)cc2)nn1

- pEC50 [6]: 4.63
SMILES: CCN(CC)CCC(=O)Nc1ccc(-n2cc(-c3cccc(-c4cn(-c5ccc(NC(=O)CCN(CC)CC)cc5)nn4)c3)nn2)cc1

- pIC50 (Tyrosinase): 2.80
SMILES: CC(C)[C@H]1C(=O)N2CCC[C@H]2c2cn(nn2)[C@@H](Cc2ccc(OCc3ccccc3)cc2)C(=O)N2CCC[C@H]2c2cn1nn2

- pIC50 (Tyrosinase): 3.30
SMILES: CC(C)[C@@H]1NC(=O)[C@@H]2CCCN2C(=O)[C@H](Cc2ccc(OCc3ccccc3)cc2)n2cc(nn2)[C@@H]2CCCN2C1=O

- pEC50 [6]: 4.88
SMILES: O=C(CCN1CCCC1)Nc1ccc(-n2cc(-c3cccc(-c4cn(-c5ccc(NC(=O)CCN6CCCC6)cc5)nn4)c3)nn2)cc1

- pEC50 [6]: 4.77
SMILES: O=C(CCN1CCCCC1)Nc1ccc(-n2cc(-c3cccc(-c4cn(-c5ccc(NC(=O)CCN6CCCCC6)cc5)nn4)c3)nn2)cc1

- pKi (D-amino-acid oxidase): 3.00
SMILES: COC(=O)/C(Cc1ccc(O)cc1)=N\OCCc1cn(CC(=O)NC(Cc2ccccc2)C(=O)O)nn1 (stereo not given)

- Ki (Carbonic anhydrase): 0.0002 µM
SMILES: NS(=O)(=O)c1ccc(-c2cn([C@H](Cc3ccccc3)C(=O)NCCc3ccsc3)nn2)cc1

- pKi [1]: 5.14
SMILES: CC(=O)N[C@H](Cc1ccc(OP(=O)(O)O)cc1)C(=O)N[C@@H](C(=O)N[C@@H]1CCCCn2cc(nn2)C[C@H](C(=O)N[C@@H](Cc2ccccc2)C(N)=O)NC(=O)[C@H]([C@@H](C)O)NC1=O)C(C)C

- pIC50 (Tyrosinase): 2.82
SMILES: CC(C)[C@@H]1NC(=O)[C@@H]2CCCN2C(=O)[C@H](Cc2ccc(O)cc2)NC(=O)[C@@H]2CCCN2C1=O (cyclo(PVPY))
